Active and inactive are the calls of the source. A value given as a limit tells only on which side of the number the result lay.

For orientation: IC90 means the point of the concentration-response curve where the effect stands at 90%. For orientation: AC50 means the concentration giving half of the maximal activity seen. The term IC50 denotes the midpoint of a concentration-inhibition curve.

Experiment [1] in a line: inhibitors of non-replicating M. tuberculosis, dose response, luciferase, dry powder (AID 651619). To be noted: Mycobacterium tuberculosis. The class given is functional.
The nature of experiment [2]: inhibitors of non-replicating M. tuberculosis, dose response, luciferase, dry powder (AID 651620). The class given is functional. To be noted: Mycobacterium tuberculosis.
The target in experiment [3] is NAD-dependent protein deacylase sirtuin-5, mitochondrial (Homo sapiens, UniProt Q9NXA8). The experiment is described as follows: SIRT5 deacylase inhibitors, dose response, biochemical, fluorescence imaging, cherry-pick, set 6 (AID 720597).
The nature of experiment [4]: HepG2 cell cytotoxicity, dose response, cytotoxicity control, ATP luminescence, dry powder, Set4 (AID 743143). The class given is functional, cell-based.
The nature of experiment [5]: P. falciparum Dd2 growth inhibitors, dose response, SYBR Green, dry powder samples, set 9 (AID 1159568). The class given is functional, cell-based.
For experiment [6], the target named is G-protein coupled receptor 183 (Homo sapiens, UniProt P32249). The experiment is described as follows: SAR confirmation of small molecule antagonists of the EBI2 receptor via a luminescent beta-arrestin assa. It counts as functional.
Experiment [7] can be described thus: P. falciparum Dd2 growth inhibitors, dose response, SYBR Green, cherry-picked samples (AID 1159567). It counts as functional, cell-based.
The nature of experiment [8]: HepG2 cell cytotoxicity, dose response, cytotoxicity control, cherry-picked samples (AID 1159577). It counts as functional, cell-based.
A short description of experiment [9]: cytotoxicity toward HCT116 cells – cell-based, CellTiter-Glo luminescence, IC50, dose response (AID 1117332). The conditions noted are these: HCT-116. The class given is functional. For orientation: In ATP-based viability assays light output follows the ATP content of the culture.
Experiment [10] is described as follows: RKO cell viability reduction, dose response, CellTiter-Glo luminescence (AID 1117322). The class given is functional.
The nature of experiment [11]: Concentration-dependent survival of SW480 colon cancer line, luminescence detection with CellTiter-Glo, half-maximal inhibitory concentration (AID 1117338). It counts as functional.
A short description of experiment [12]: HeLa 2N DNA content increase, dose response, cell-based, IC50 (AID 1117349). The class given is functional.
The nature of experiment [13]: cytotoxicity toward Colo320 cells – cell-based, CellTiter-Glo luminescence, IC50, dose response (AID 1117334). The class given is functional. The conditions noted are these: COLO 320.
Experiment [14] is described as follows: CellTiter-Glo luminescent dose response of DLD-1 viability loss (AID 1117352). It counts as functional.
The nature of experiment [15]: cytotoxicity toward HT-29 cells – cell-based, CellTiter-Glo luminescence, IC50, dose response (AID 1117330). It counts as functional.
The nature of experiment [16]: SNU-C1 cell viability reduction, dose response, CellTiter-Glo luminescence (AID 1117323). The class given is functional, cell-based.
Experiment [17] is described as follows: HeLa 4N DNA content increase, dose response, cell-based, IC50 (AID 1117351). It counts as functional.
A short description of experiment [18]: HCT116 cell viability decrease, GSK3B pretreatment – CellTiter-Glo, IC50, dose response (AID 1117339). It counts as functional. The conditions noted are these: HCT-116.

Chain of G-protein coupled receptor 183 (P32249 whole entry): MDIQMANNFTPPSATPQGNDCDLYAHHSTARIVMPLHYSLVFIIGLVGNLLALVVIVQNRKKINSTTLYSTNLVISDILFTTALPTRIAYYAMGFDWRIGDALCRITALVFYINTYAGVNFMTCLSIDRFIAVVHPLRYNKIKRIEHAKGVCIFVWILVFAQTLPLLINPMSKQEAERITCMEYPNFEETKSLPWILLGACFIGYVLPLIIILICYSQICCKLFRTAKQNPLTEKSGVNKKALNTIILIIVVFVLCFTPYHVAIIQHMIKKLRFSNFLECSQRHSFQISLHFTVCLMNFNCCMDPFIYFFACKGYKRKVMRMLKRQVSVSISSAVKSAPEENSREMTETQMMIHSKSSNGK
Chain of NAD-dependent protein deacylase sirtuin-5, mitochondrial (Q9NXA8 whole entry): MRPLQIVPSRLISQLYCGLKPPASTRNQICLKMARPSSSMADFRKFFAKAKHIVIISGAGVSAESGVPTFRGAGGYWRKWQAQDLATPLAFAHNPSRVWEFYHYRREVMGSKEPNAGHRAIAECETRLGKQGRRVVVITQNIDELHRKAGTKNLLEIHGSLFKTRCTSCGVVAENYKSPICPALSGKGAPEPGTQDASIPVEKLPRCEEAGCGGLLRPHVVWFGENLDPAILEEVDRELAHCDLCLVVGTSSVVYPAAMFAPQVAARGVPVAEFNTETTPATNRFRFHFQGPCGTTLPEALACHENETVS

For `c1ccc(-c2nnc(SC3CCCCC3)o2)cc1`, the IC90 in experiment [1] and in [2] was 2 µM (active) throughout.

For `COc1ccc(NC(=O)N2C[C@H](O)COC[C@@H]3O[C@@H](CC(=O)N4CCCCC4)CC[C@H]32)cc1`, the half-maximal activity concentration (AC50) in experiment [3] is 26.1 µM (active).

Regarding `O=C(CCCNC(=O)c1ccc(Cl)c(Cl)c1)N[C@@H]1CCCc2ccccc21`, in experiment [4], the AC50 was > 52 µM (inactive).

For the molecule `COc1ccc2c3c(n(C)c2c1)[C@@H](CO)N(Cc1ccc2c(c1)OCO2)CC31CN(C(=O)c2ccc3c(c2)OCO3)C1`, the AC50 in [5] is 1.21 µM (active).

As to `Cc1ccc(S(=O)(=O)N2CCN(C(=O)/C=C/c3ccc(F)cc3)CC2)cc1`, in experiment [6], the IC50 is 0.00767 µM (active).

For `Cc1ccccc1S(=O)(=O)N1CC(=O)N2[C@H](C1)[C@@H](c1ccc(C#CCC3CCCC3)cc1)[C@@H]2CO`, the AC50 was 3.64 µM (active) in [7] and > 42 µM (inactive) in experiment [8].

For the molecule `Cc1c(C)c2c(c(C)c1O)CCC(C)(COc1ccc(CC3SC(=O)NC3=O)cc1)O2` (stereo not drawn) [TROGLITAZONE], the IC50 in experiment [9] was 1.4 µM (active); in experiment [10], 7.76 µM (inactive); in [11], 5.59 µM (inactive); in experiment [12] it was > 10 µM (inactive); in experiment [13] it was 9.49 µM (inactive); in [14] it was 12.3 µM (inactive). For the same molecule, the IC50 in experiment [15] is > 20 µM (inactive); in experiment [16], > 20 µM (inactive); in [17] it was > 10 µM (inactive); in experiment [18], 1.3 µM (active).
